From the NIST ThermoML archive (doi:10.1016/j.jct.2013.03.023)
Numbers after ± are expanded uncertainties.

Conditions: 101.33 kPa, Liquid; for viscosity: Capillary tube (Ostwald / Ubbelohde) method; for mass density: Vibrating tube method

| viscosity (298.15 K) | mass density (298.15 K) | viscosity (303.15 K) | mass density (303.15 K) | viscosity (308.15 K) | mass density (308.15 K) | viscosity (313.15 K) | mass density (313.15 K) | SMILES |
| --- | --- | --- | --- | --- | --- | --- | --- | --- |
| 8.703 ± 0.2 mPa·s | 1009 ± 1 kg/m3 | 6.981 ± 0.16 mPa·s | 1004.86 ± 1 kg/m3 | 5.714 ± 0.13 mPa·s | 1000.73 ± 1 kg/m3 | 4.748 ± 0.11 mPa·s | 996.58 ± 1 kg/m3 | CC(O)c1ccccc1 (configuration not stated) [1-phenylethanol] |
| 0.891 ± 0.019 mPa·s |  |  |  |  |  |  |  | O [water] |
| 0.6378 ± 0.014 mPa·s | 862.51 ± 1 kg/m3 | 0.609 ± 0.013 mPa·s | 858.1 ± 1 kg/m3 | 0.5682 ± 0.012 mPa·s | 853.68 ± 1 kg/m3 | 0.541 ± 0.012 mPa·s | 849.26 ± 1 kg/m3 | CCc1ccccc1 [ethylbenzene] |
